Measurements from ChEMBL document CHEMBL4715696, “In vitro synergistic anticancer activity of the combination of T-type calcium channel blocker and chemotherapeutic agent in A549 cells” (Bioorg Med Chem Lett, 2016).

Assays:
A549 [1] = experiment: Induction of cell cycle arrest in human A549 cells assessed as accumulation at G2/M phase at 5 uM after 24 hrs by flow cytometric analysis (reference value: 21.6%); type: functional
A549 [2] = experiment: Induction of cell cycle arrest in human A549 cells assessed as accumulation at G1 phase at 5 uM after 48 hrs by flow cytometric analysis (reference value: 57.8 to 65.5%); type: functional
A549 [3] = experiment: Decrease in cell cycle associated protein expression in human A549 cells assessed as fold change in CDK4 expression at 5 uM after 48 hrs by Western blot analysis (reference value: 0.62); type: functional
A549 [4] = experiment: Decrease in cell cycle associated protein expression in human A549 cells assessed as fold change in CDK4 expression at 10 uM after 6 hrs by Western blot analysis (reference value: 0.87); type: functional
A549 [5] = experiment: Decrease in cell cycle associated protein expression in human A549 cells assessed as fold change in cyclin D1 expression at 2.5 uM after 48 hrs by Western blot analysis (reference value: 0.39); type: functional
A549 [6] = experiment: Decrease in cell cycle associated protein expression in human A549 cells assessed as fold change in cyclin D1 expression at 10 uM after 12 hrs by Western blot analysis (reference value: 0.68); type: functional
A549 [7] = experiment: Decrease in cell cycle associated protein expression in human A549 cells assessed as reduction in cyclin D2 expression after 48 hrs by Western blot analysis; type: functional, cell-based; settings: dose 2.5-10 µM
A549 [8] = experiment: Decrease in cell cycle associated protein expression in human A549 cells assessed as fold change in cyclin D2 expression at 2.5 uM after 48 hrs by Western blot analysis (reference value: 0.46); type: functional
A549 [9] = experiment: Decrease in cell cycle associated protein expression in human A549 cells assessed as fold change in cyclin D3 expression at 10 uM after 12 hrs by Western blot analysis (reference value: 1.09); type: functional
A549 [10] = experiment: Decrease in cell cycle associated protein expression in human A549 cells assessed as reduction in cyclin E expression after 48 hrs by Western blot analysis; type: functional, cell-based; settings: dose 2.5-10 µM
A549 [11] = experiment: Decrease in cell cycle associated protein expression in human A549 cells assessed as fold change in cyclin E expression at 10 uM after 48 hrs by Western blot analysis (reference value: 0.37 to 0.55); type: functional
A549 [12] = experiment: Decrease in cell cycle associated protein expression in human A549 cells assessed as fold change in cyclin E expression at 10 uM after 36 hrs by Western blot analysis (reference value: 0.55); type: functional
[13] = Upregulation of p27KIP1 protein expression in human A549 cells assessed as fold change in expression at 10 uM after 48 hrs by Western blot analysis (reference value: 0.48 to 0.83); type: functional
[14] = Metabolic stability in human liver microsomes assessed as parent compound remaining at 1 uM measured for 30 mins; type: ADME, Microsome; settings: read-out: Stabilty
CYP1A2 = molecular target: T1, CYP1A2 (Homo sapiens, UniProt P05177); experiment: Inhibition of human CYP1A2 assessed as residual activity at 10 uM measured after 15 mins relative to control; type: ADME; settings: read-out: Activity
T1 sequence (P05177 whole entry): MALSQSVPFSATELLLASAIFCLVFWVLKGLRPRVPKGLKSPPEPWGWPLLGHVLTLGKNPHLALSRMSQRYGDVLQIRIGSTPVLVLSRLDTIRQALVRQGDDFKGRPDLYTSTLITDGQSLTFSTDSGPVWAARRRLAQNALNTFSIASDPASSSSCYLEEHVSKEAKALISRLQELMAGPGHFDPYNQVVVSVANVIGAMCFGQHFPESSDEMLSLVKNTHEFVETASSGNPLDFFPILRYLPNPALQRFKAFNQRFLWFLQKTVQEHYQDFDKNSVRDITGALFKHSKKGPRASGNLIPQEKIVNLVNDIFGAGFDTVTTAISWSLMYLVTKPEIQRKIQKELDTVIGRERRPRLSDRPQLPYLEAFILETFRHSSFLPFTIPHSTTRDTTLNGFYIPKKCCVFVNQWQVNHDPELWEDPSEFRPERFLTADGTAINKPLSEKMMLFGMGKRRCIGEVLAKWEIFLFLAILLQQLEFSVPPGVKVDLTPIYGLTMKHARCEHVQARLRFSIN

CYP2C9 = CYP2C9 (Homo sapiens, UniProt P11712); experiment: Inhibition of human CYP2C9 assessed as residual activity at 10 uM measured after 15 mins relative to control; type: ADME; settings: read-out: Activity
Chain of CYP2C9 (P11712 whole entry): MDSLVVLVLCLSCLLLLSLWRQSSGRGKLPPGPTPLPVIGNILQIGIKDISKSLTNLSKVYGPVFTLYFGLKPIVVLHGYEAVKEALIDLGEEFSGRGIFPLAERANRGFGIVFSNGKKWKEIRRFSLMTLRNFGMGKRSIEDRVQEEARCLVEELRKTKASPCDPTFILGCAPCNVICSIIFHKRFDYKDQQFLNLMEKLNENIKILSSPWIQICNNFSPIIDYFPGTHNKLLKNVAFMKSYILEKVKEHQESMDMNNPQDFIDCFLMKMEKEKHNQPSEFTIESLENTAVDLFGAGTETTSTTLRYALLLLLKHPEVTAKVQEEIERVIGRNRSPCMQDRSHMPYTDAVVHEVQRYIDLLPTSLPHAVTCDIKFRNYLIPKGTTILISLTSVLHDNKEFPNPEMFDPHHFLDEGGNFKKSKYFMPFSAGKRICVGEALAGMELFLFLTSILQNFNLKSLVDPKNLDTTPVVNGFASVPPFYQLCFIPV

[15] = Metabolic stability in human plasma assessed as parent compound remaining at 10 uM measured after 30 mins; type: ADME, cell-free; settings: read-out: Stabilty
[16] = Metabolic stability in human plasma assessed as parent compound remaining at 10 uM measured after 2 hrs; type: ADME, cell-free; settings: read-out: Stabilty
[17] = Metabolic stability in rat plasma assessed as parent compound remaining at 10 uM measured after 30 mins; type: ADME, cell-free; settings: read-out: Stabilty
[18] = Metabolic stability in rat plasma assessed as parent compound remaining at 10 uM measured after 1 hr; type: ADME, cell-free; settings: read-out: Stabilty
A549 [19] = experiment: Induction of cell cycle arrest in human A549 cells assessed as accumulation at sub G1 phase at 2.5 uM after 48 hrs by flow cytometric analysis (Rvb =1.9 %); type: functional
A549 [20] = experiment: Potentiation of etoposide-induced cell cycle arrest in human A549 cells assessed as accumulation at sub G1 phase at 5 uM in presence of etoposide after 48 hrs by flow cytometric analysis (Rvb =33 %); type: functional
A549 [21] = experiment: Potentiation of etoposide-induced cell cycle arrest in human A549 cells assessed as accumulation at sub G1 phase at 10 uM in presence of etoposide after 48 hrs by flow cytometric analysis (Rvb =33 %); type: functional
A549 [22] = experiment: Potentiation of etoposide-induced cell cycle arrest in human A549 cells assessed as accumulation at G1 phase at 2.5 uM in presence of etoposide after 48 hrs by flow cytometric analysis (reference value: 36%); type: functional
A549 [23] = experiment: Potentiation of etoposide-induced cell cycle arrest in human A549 cells assessed as accumulation at G1 phase at 5 uM in presence of etoposide after 48 hrs by flow cytometric analysis (reference value: 36%); type: functional
A549 [24] = experiment: Potentiation of cisplatin-induced cell cycle arrest in human A549 cells assessed as accumulation at G1 phase at 2.5 uM in presence of cisplatin after 48 hrs by flow cytometric analysis (reference value: 14.4%); type: functional
A549 [25] = experiment: Potentiation of cisplatin-induced cell cycle arrest in human A549 cells assessed as accumulation at S phase at 5 uM in presence of cisplatin after 48 hrs by flow cytometric analysis (Rvb =15.8%); type: functional
A549 [26] = experiment: Potentiation of cisplatin-induced cell cycle arrest in human A549 cells assessed as accumulation at S phase at 10 uM in presence of cisplatin after 48 hrs by flow cytometric analysis (Rvb =15.8%); type: functional
A549 [27] = experiment: Potentiation of cisplatin-induced cell cycle arrest in human A549 cells assessed as accumulation at G2/M phase at 2.5 uM in presence of cisplatin after 48 hrs by flow cytometric analysis (Rvb =52.9%); type: functional
A549 [28] = experiment: Induction of cell cycle arrest in human A549 cells assessed as accumulation at S phase at 10 uM after 48 hrs by flow cytometric analysis (reference value: 10.4%); type: functional
A549 [29] = experiment: Induction of cell cycle arrest in human A549 cells assessed as decrease in cell accumulation at S phase after 48 hrs by flow cytometric analysis; type: functional, cell-based; settings: dose 2.5-10 µM
[30] = Solubility of the compound at pH 7.4; type: physicochemical; settings: buffer

remaining at 0.5 h, 1 µM [14]: 71.2%
activity at 0.25 h, 10 µM (CYP1A2): 59.2%
activity at 0.25 h, 10 µM (CYP2C9): 89.8%
remaining at 0.5 h, 10 µM [15]: 113%
remaining at 2 h, 10 µM [16]: 57.6%
remaining at 0.5 h, 10 µM [17]: 49.4%
remaining at 1 h, 10 µM [18]: 22%
solubility [30]: < 1000 µg/mL
Structure (SMILES): CN(C)C(=O)NCCCN(C)C1=Nc2ccccc2C(CC(=O)NCc2ccc(F)cc2)N1c1ccc(C2CCCCC2)cc1 (configuration not stated)
Activity (A549 [1]): 19.3%
Activity (A549 [2]): 67.7%
fold change (FC) (A549 [3]): 0.64
fold change (FC) (A549 [4]): 0.88
fold change (FC) (A549 [5]): 0.43
fold change (FC) (A549 [6]): 0.35
Activity (A549 [7]): Dose-dependent effect
fold change (FC) (A549 [8]): 0.61
fold change (FC) (A549 [9]): 0.42
Activity (A549 [10]): Dose-dependent effect
fold change (FC) (A549 [11]): 0.01
fold change (FC) (A549 [12]): 0.18
fold change (FC) [13]: 0.93
Activity (A549 [19]): 1.3%
Activity (A549 [20]): 43.4%
Activity (A549 [21]): 83.1%
Activity (A549 [22]): 34.3%
Activity (A549 [23]): 35.6%
Activity (A549 [24]): 19.2%
Activity (A549 [25]): 16.8%
Activity (A549 [26]): 6.1%
Activity (A549 [27]): 43%
Activity (A549 [28]): 2.4%
Activity (A549 [29]): Dose-dependent effect
